Test results from publication PMC8480901 (PLoS ONE, 2021).
Values joined by “and” are separate entries in the source; they are usually repeats but may differ in a detail not shown here. Equal entries are not always repeated.

Test system: human PBMCs
Experiment: LPS-induced cytokine and chemokine levels in human PBMC supernatant (Luminex, ELISA)
Format: cell-based
Settings: for TNF-α % reduction / TNF-α [pg/mL], Mean / TNF-α [pg/mL], individual value / GM-CSF % reduction / GM-CSF [pg/mL], Mean / GM-CSF [pg/mL], individual value / IL-1β % reduction / IL-1β [pg/mL], Mean / IL-1β [pg/mL], individual value / IL-6 % reduction / IL-6 [pg/mL], Mean / IL-6 [pg/mL], individual value / IL-8 % reduction / IL-8 [pg/mL], Mean / IL-8 [pg/mL], individual value: LPS-stimulated human PBMC supernatant

C=C[C@]1(C)C[C@@H](OC(=O)CS[C@@H]2CC[C@@H](N)C[C@H]2O)[C@]2(C)[C@H](C)CC[C@]3(CCC(=O)[C@H]32)[C@@H](C)[C@@H]1O [Lefamulin]
TNF-α % reduction (0.03 µM): 19%
TNF-α [pg/mL], Mean (0.03 µM): 7210 pg/mL
TNF-α [pg/mL], individual value (0.03 µM): 7885 pg/mL and 6534 pg/mL
GM-CSF % reduction (0.1 µM): -3%
GM-CSF [pg/mL], Mean (0.1 µM): 677 pg/mL
GM-CSF [pg/mL], individual value (0.1 µM): 676 pg/mL and 678 pg/mL
IL-1β % reduction (0.1 µM): 0.28%
IL-1β [pg/mL], Mean (0.1 µM): 12749 pg/mL
IL-1β [pg/mL], individual value (0.1 µM): 11912 pg/mL and 13586 pg/mL
IL-6 % reduction (0.1 µM): 4%
IL-6 [pg/mL], Mean (0.1 µM): 33560 pg/mL
IL-6 [pg/mL], individual value (0.1 µM): 32908 pg/mL and 34212 pg/mL
IL-8 % reduction (0.1 µM): 6%
IL-8 [pg/mL], Mean (0.1 µM): 2899 pg/mL
IL-8 [pg/mL], individual value (0.1 µM): 2852 pg/mL and 2946 pg/mL
TNF-α % reduction (0.1 µM): 9%
TNF-α [pg/mL], Mean (0.1 µM): 8157 pg/mL
TNF-α [pg/mL], individual value (0.1 µM): 7880 pg/mL and 8433 pg/mL
GM-CSF % reduction (0.3 µM): -3%
GM-CSF [pg/mL], Mean (0.3 µM): 677 pg/mL
GM-CSF [pg/mL], individual value (0.3 µM): 692 pg/mL and 662 pg/mL
IL-1β % reduction (0.3 µM): -12%
IL-1β [pg/mL], Mean (0.3 µM): 14379 pg/mL
IL-1β [pg/mL], individual value (0.3 µM): 14814 pg/mL and 13945 pg/mL
IL-6 % reduction (0.3 µM): -0.0984%
IL-6 [pg/mL], Mean (0.3 µM): 34943 pg/mL
IL-6 [pg/mL], individual value (0.3 µM): 35534 pg/mL and 34352 pg/mL
IL-8 % reduction (0.3 µM): -13%
IL-8 [pg/mL], Mean (0.3 µM): 3213 pg/mL
IL-8 [pg/mL], individual value (0.3 µM): 3328 pg/mL and 3097 pg/mL
TNF-α % reduction (0.3 µM): -1.74%
TNF-α [pg/mL], Mean (0.3 µM): 9093 pg/mL
TNF-α [pg/mL], individual value (0.3 µM): 9382 pg/mL and 8804 pg/mL
GM-CSF % reduction (1 µM): -5.35%
GM-CSF [pg/mL], Mean (1 µM): 693 pg/mL
GM-CSF [pg/mL], individual value (1 µM): 646 pg/mL and 740 pg/mL
IL-1β % reduction (1 µM): -4%
IL-1β [pg/mL], Mean (1 µM): 13318 pg/mL
IL-1β [pg/mL], individual value (1 µM): 12337 pg/mL and 14300 pg/mL
IL-6 % reduction (1 µM): -4%
IL-6 [pg/mL], Mean (1 µM): 36293 pg/mL
IL-6 [pg/mL], individual value (1 µM): 36311 pg/mL and 36275 pg/mL
IL-8 % reduction (1 µM): -10%
IL-8 [pg/mL], Mean (1 µM): 3154 pg/mL
IL-8 [pg/mL], individual value (1 µM): 3230 pg/mL and 3077 pg/mL
TNF-α % reduction (1 µM): -5.41%
TNF-α [pg/mL], Mean (1 µM): 9420 pg/mL
TNF-α [pg/mL], individual value (1 µM): 9688 pg/mL and 9151 pg/mL
GM-CSF % reduction (3 µM): -8%
GM-CSF [pg/mL], Mean (3 µM): 711 pg/mL
GM-CSF [pg/mL], individual value (3 µM): 719 pg/mL and 703 pg/mL
IL-1β % reduction (3 µM): 4%
IL-1β [pg/mL], Mean (3 µM): 12272 pg/mL
IL-1β [pg/mL], individual value (3 µM): 10817 pg/mL and 13728 pg/mL
IL-6 % reduction (3 µM): -8.52%
IL-6 [pg/mL], Mean (3 µM): 37884 pg/mL
IL-6 [pg/mL], individual value (3 µM): 36958 pg/mL and 38809 pg/mL
IL-8 % reduction (3 µM): -3%
IL-8 [pg/mL], Mean (3 µM): 3044 pg/mL
IL-8 [pg/mL], individual value (3 µM): 3098 pg/mL and 2991 pg/mL
TNF-α % reduction (3 µM): -12%
TNF-α [pg/mL], Mean (3 µM): 9993 pg/mL
TNF-α [pg/mL], individual value (3 µM): 8826 pg/mL and 11161 pg/mL
GM-CSF % reduction (10 µM): -9%
GM-CSF [pg/mL], Mean (10 µM): 717 pg/mL
GM-CSF [pg/mL], individual value (10 µM): 744 pg/mL and 689 pg/mL
IL-1β % reduction (10 µM): -2.68%
IL-1β [pg/mL], Mean (10 µM): 13127 pg/mL
IL-1β [pg/mL], individual value (10 µM): 12893 pg/mL and 13362 pg/mL
IL-6 % reduction (10 µM): -16%
IL-6 [pg/mL], Mean (10 µM): 40496 pg/mL
IL-6 [pg/mL], individual value (10 µM): 38929 pg/mL and 42063 pg/mL
IL-8 % reduction (10 µM): 13%
IL-8 [pg/mL], Mean (10 µM): 2781 pg/mL
IL-8 [pg/mL], individual value (10 µM): 2867 pg/mL and 2696 pg/mL
TNF-α % reduction (10 µM): -3.32%
TNF-α [pg/mL], Mean (10 µM): 9234 pg/mL
TNF-α [pg/mL], individual value (10 µM): 8438 pg/mL and 10030 pg/mL
GM-CSF % reduction (30 µM): -38%
GM-CSF [pg/mL], Mean (30 µM): 905 pg/mL
GM-CSF [pg/mL], individual value (30 µM): 938 pg/mL and 871 pg/mL
IL-1β % reduction (30 µM): -19%
IL-1β [pg/mL], Mean (30 µM): 15264 pg/mL
IL-1β [pg/mL], individual value (30 µM): 15102 pg/mL and 15425 pg/mL
IL-6 % reduction (30 µM): -24%
IL-6 [pg/mL], Mean (30 µM): 43122 pg/mL
IL-6 [pg/mL], individual value (30 µM): 44285 pg/mL and 41958 pg/mL
IL-8 % reduction (30 µM): 27%
IL-8 [pg/mL], Mean (30 µM): 2563 pg/mL
IL-8 [pg/mL], individual value (30 µM): 2485 pg/mL and 2640 pg/mL
TNF-α % reduction (30 µM): 33%
TNF-α [pg/mL], Mean (30 µM): 6044 pg/mL
TNF-α [pg/mL], individual value (30 µM): 6330 pg/mL and 5758 pg/mL
GM-CSF % reduction (100 µM): -97%
GM-CSF [pg/mL], Mean (100 µM): 1293 pg/mL
GM-CSF [pg/mL], individual value (100 µM): 1274 pg/mL and 1313 pg/mL
IL-1β % reduction (100 µM): -71%
IL-1β [pg/mL], Mean (100 µM): 21910 pg/mL
IL-1β [pg/mL], individual value (100 µM): 21940 pg/mL and 21880 pg/mL
IL-6 % reduction (100 µM): 23%
IL-6 [pg/mL], Mean (100 µM): 26707 pg/mL
IL-6 [pg/mL], individual value (100 µM): 26414 pg/mL and 27001 pg/mL
IL-8 % reduction (100 µM): 11%
IL-8 [pg/mL], Mean (100 µM): 2809 pg/mL
IL-8 [pg/mL], individual value (100 µM): 2812 pg/mL and 2806 pg/mL
TNF-α % reduction (100 µM): 74%
TNF-α [pg/mL], Mean (100 µM): 2354 pg/mL
TNF-α [pg/mL], individual value (100 µM): 2393 pg/mL and 2315 pg/mL
levels of the measured LPS-induced cytokines, chemokines, or MMP-9 in supernatants (human PBMCs, concentrations tested (100 μM not shown)): little to no reduction
